Laboratory results as given in ChEMBL document CHEMBL4507304, “Data for DCP probe TP-021” (2021).

What was measured:
[1] = test system: Tyrosine-protein kinase ABL1 (Homo sapiens), P00519 [H396P]; settings: Compound concentration 1000.0 nM
[2] = target: Bone morphogenetic protein receptor type-1B (Homo sapiens) (UniProt O00238); settings: Compound concentration 1000.0 nM
[3] = target: Calcium/calmodulin-dependent protein kinase type 1G (Homo sapiens) (UniProt Q96NX5); settings: Compound concentration 1000.0 nM
[4] = target: Calcium/calmodulin-dependent protein kinase type IV (Homo sapiens) (UniProt Q16566); settings: Compound concentration 1000.0 nM
[5] = target: Cyclin-dependent kinase 11B (Homo sapiens) (UniProt P21127); settings: Compound concentration 1000.0 nM
Sequence of Cyclin-dependent kinase 11B (Homo sapiens) (P21127 whole entry): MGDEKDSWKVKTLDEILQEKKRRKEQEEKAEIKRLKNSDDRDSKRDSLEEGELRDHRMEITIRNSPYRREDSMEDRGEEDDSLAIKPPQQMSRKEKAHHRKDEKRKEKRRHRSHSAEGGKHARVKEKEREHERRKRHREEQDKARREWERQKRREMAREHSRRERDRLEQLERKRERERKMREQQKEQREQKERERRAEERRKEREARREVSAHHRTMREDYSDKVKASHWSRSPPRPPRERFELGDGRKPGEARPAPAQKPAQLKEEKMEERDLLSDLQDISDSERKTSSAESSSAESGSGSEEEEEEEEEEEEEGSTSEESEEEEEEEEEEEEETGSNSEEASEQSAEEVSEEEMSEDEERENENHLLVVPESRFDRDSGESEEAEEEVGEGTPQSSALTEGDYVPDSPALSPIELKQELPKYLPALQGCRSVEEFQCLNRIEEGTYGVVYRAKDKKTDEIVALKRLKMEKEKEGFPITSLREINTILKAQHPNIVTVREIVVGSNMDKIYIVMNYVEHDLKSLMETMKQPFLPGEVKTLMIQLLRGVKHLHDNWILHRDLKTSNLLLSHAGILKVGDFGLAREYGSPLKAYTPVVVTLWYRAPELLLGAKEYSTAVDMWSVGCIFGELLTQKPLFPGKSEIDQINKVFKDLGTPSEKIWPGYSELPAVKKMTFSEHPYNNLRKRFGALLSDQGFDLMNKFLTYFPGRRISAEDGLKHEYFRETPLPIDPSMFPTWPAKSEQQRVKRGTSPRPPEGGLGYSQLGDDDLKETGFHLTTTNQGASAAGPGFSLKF

[6] = target: Casein kinase II subunit alpha' (Homo sapiens) (UniProt P19784); settings: Compound concentration 1000.0 nM
[7] = test system: Epidermal growth factor receptor (Homo sapiens), P00533 [UNDEFINED MUTATION]; settings: Compound concentration 1000.0 nM
[8] = target: Ephrin type-A receptor 5 (Homo sapiens) (UniProt P54756); settings: Compound concentration 1000.0 nM
Sequence of Ephrin type-A receptor 5 (Homo sapiens) (P54756 whole entry): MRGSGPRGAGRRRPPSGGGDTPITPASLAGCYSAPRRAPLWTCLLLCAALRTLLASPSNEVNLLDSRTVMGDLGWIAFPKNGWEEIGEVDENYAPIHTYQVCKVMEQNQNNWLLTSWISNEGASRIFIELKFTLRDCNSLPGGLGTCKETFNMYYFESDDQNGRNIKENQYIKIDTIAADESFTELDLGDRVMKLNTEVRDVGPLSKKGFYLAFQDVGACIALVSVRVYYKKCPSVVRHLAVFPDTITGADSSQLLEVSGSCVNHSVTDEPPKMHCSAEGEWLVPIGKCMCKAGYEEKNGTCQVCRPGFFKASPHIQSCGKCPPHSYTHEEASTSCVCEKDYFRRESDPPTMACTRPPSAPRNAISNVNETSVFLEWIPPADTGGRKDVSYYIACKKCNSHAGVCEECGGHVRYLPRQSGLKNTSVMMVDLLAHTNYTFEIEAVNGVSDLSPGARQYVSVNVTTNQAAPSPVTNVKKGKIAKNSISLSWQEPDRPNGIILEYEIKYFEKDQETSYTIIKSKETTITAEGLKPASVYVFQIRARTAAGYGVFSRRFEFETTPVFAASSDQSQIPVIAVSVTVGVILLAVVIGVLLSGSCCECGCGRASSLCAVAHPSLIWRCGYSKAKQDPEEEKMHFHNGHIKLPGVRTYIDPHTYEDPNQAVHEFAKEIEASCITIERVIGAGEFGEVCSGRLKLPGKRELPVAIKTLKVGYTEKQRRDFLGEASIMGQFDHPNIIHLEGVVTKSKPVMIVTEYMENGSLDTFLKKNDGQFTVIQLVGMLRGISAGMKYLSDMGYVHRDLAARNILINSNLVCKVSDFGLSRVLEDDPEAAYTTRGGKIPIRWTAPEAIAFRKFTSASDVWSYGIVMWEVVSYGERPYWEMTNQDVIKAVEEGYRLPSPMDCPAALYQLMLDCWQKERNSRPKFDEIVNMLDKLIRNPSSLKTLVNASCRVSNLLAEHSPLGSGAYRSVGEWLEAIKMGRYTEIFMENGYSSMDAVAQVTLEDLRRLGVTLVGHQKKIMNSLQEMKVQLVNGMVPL

[9] = target: Receptor tyrosine-protein kinase erbB-3 (Homo sapiens) (UniProt P21860); settings: Compound concentration 1000.0 nM
Sequence of Receptor tyrosine-protein kinase erbB-3 (Homo sapiens) (P21860 whole entry): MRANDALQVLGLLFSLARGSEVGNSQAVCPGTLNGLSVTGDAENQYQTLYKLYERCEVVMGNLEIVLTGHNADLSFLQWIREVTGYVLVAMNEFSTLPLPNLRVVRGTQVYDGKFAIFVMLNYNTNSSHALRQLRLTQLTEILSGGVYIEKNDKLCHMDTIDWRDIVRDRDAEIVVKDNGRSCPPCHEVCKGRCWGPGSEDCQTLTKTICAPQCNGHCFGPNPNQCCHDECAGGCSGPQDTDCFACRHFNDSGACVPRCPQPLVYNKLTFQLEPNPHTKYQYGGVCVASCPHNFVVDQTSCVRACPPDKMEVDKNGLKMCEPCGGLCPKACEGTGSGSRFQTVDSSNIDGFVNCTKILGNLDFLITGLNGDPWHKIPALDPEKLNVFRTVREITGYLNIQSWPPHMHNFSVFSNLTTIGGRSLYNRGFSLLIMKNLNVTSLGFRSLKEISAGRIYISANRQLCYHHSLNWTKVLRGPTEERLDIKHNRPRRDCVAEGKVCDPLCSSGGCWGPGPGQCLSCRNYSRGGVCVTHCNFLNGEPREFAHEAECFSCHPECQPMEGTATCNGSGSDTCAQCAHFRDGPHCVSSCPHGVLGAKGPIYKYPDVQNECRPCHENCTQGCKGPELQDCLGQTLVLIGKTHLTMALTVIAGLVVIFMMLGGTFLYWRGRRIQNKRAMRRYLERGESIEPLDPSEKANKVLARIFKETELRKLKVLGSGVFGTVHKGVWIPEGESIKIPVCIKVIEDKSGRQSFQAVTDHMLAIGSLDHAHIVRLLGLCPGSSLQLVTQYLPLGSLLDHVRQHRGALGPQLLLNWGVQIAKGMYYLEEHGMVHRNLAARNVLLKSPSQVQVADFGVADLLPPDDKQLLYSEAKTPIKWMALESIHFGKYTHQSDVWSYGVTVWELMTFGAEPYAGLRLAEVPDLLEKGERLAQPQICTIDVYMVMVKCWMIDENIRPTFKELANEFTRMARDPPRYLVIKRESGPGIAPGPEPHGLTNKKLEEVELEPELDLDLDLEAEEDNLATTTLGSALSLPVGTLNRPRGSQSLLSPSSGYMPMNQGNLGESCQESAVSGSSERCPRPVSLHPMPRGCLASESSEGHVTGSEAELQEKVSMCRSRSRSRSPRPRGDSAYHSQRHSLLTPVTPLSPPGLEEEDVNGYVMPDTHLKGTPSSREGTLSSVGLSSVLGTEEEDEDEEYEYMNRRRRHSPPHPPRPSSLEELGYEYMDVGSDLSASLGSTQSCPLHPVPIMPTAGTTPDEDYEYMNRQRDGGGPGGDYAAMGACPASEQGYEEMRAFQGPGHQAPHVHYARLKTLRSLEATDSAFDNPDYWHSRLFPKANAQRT

[10] = target: Receptor tyrosine-protein kinase erbB-4 (Homo sapiens) (UniProt Q15303); settings: Compound concentration 1000.0 nM
[11] = target: Mitogen-activated protein kinase 1 (Homo sapiens) (UniProt P28482); settings: Compound concentration 1000.0 nM
[12] = test system: Receptor-type tyrosine-protein kinase FLT3 (Homo sapiens), P36888 [D835H]; settings: Compound concentration 1000.0 nM
[13] = test system: Receptor-type tyrosine-protein kinase FLT3 (Homo sapiens), P36888 [D835Y]; settings: Compound concentration 1000.0 nM
[14] = target: Glycogen synthase kinase-3 beta (Homo sapiens) (UniProt P49841); settings: Compound concentration 1000.0 nM
[15] = target: Homeodomain-interacting protein kinase 1 (Homo sapiens) (UniProt Q86Z02); settings: Compound concentration 1000.0 nM
[16] = target: Interleukin-1 receptor-associated kinase 1 (Homo sapiens) (UniProt P51617); settings: Compound concentration 1000.0 nM
[17] = target: Interleukin-1 receptor-associated kinase 4 (Homo sapiens) (UniProt Q9NWZ3); settings: Compound concentration 1000.0 nM
[18] = test system: Mast/stem cell growth factor receptor Kit (Homo sapiens), P10721 [A829P]; settings: Compound concentration 1000.0 nM
[19] = test system: Mast/stem cell growth factor receptor Kit (Homo sapiens), P10721 [D816V]; settings: Compound concentration 1000.0 nM
[20] = target: Mast/stem cell growth factor receptor Kit (Homo sapiens) (UniProt P10721); settings: Compound concentration 1000.0 nM
[21] = target: Serine/threonine-protein kinase MARK2 (Homo sapiens) (UniProt Q7KZI7); settings: Compound concentration 1000.0 nM
[22] = target: Dual specificity mitogen-activated protein kinase kinase 1 (Homo sapiens) (UniProt Q02750); settings: Compound concentration 1000.0 nM
Sequence of Dual specificity mitogen-activated protein kinase kinase 1 (Homo sapiens) (Q02750 whole entry): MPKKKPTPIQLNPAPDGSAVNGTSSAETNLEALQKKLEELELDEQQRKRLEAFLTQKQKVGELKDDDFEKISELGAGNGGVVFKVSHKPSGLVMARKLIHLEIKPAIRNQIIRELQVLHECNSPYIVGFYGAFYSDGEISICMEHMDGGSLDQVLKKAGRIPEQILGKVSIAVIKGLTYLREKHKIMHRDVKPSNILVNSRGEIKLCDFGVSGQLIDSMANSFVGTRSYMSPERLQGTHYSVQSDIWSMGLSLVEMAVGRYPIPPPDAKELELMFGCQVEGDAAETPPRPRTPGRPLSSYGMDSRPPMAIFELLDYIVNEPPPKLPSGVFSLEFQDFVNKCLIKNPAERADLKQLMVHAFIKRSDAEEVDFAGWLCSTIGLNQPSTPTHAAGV

[23] = target: Tyrosine-protein kinase Mer (Homo sapiens) (UniProt Q12866); settings: Compound concentration 1000.0 nM
[24] = test system: Hepatocyte growth factor receptor (Homo sapiens), P08581 [M1250T]; settings: Compound concentration 1000.0 nM
[25] = target: Serine/threonine-protein kinase MRCK alpha (Homo sapiens) (UniProt Q5VT25); settings: Compound concentration 1000.0 nM
[26] = target: Serine/threonine-protein kinase 3 (Homo sapiens) (UniProt Q13188); settings: Compound concentration 1000.0 nM
[27] = target: Myosin light chain kinase, smooth muscle (Homo sapiens) (UniProt Q15746); settings: Compound concentration 1000.0 nM
[28] = target: Serine/threonine-protein kinase Nek1 (Homo sapiens) (UniProt Q96PY6); settings: Compound concentration 1000.0 nM
[29] = target: Mitogen-activated protein kinase kinase kinase 14 (Homo sapiens) (UniProt Q99558); settings: Compound concentration 1000.0 nM
Sequence of Mitogen-activated protein kinase kinase kinase 14 (Homo sapiens) (Q99558 whole entry, looked up): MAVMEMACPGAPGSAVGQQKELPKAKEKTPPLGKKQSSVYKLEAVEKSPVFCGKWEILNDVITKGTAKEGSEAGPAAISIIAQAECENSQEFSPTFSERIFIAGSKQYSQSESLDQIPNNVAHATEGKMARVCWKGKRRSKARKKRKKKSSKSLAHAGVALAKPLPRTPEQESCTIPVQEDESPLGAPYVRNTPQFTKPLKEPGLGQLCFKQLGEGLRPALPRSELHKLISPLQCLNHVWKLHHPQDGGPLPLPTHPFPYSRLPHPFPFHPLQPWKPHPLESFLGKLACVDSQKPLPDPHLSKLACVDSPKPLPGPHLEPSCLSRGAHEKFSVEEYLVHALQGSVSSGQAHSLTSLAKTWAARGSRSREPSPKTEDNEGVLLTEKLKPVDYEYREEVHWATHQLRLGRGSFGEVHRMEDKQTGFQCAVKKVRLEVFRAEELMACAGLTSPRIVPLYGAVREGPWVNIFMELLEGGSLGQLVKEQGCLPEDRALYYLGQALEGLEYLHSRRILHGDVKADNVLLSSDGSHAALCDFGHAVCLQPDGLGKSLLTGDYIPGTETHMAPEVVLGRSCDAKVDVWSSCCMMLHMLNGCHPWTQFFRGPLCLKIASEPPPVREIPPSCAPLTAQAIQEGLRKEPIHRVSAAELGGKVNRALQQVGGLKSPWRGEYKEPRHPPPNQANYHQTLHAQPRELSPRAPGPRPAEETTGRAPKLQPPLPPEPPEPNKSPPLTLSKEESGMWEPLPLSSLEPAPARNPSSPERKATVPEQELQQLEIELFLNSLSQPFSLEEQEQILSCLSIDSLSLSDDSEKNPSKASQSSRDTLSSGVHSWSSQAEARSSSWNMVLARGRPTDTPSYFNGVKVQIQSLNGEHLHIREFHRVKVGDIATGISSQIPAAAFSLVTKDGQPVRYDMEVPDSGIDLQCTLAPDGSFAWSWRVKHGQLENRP

[30] = target: Serine/threonine-protein kinase NLK (Homo sapiens) (UniProt Q9UBE8); settings: Compound concentration 1000.0 nM
[31] = target: Serine/threonine-protein kinase PAK 1 (Homo sapiens) (UniProt Q13153); settings: Compound concentration 1000.0 nM
[32] = test system: Phosphatidylinositol 4,5-bisphosphate 3-kinase catalytic subunit alpha isoform (Homo sapiens), P42336 [M1043I]; settings: Compound concentration 1000.0 nM
[33] = target: cAMP-dependent protein kinase catalytic subunit beta (Homo sapiens) (UniProt P22694); settings: Compound concentration 1000.0 nM
[34] = target: Serine/threonine-protein kinase PLK4 (Homo sapiens) (UniProt O00444); settings: Compound concentration 1000.0 nM
[35] = target: Serine/threonine-protein kinase SIK3 (Homo sapiens) (UniProt Q9Y2K2); settings: Compound concentration 1000.0 nM
[36] = target: Dual serine/threonine and tyrosine protein kinase (Homo sapiens) (UniProt Q6XUX3); settings: Compound concentration 1000.0 nM
[37] = target: Rho-associated protein kinase 1 (Homo sapiens) (UniProt Q13464); settings: Compound concentration 1000.0 nM
[38] = target: SNF-related serine/threonine-protein kinase (Homo sapiens) (UniProt Q9NRH2); settings: Compound concentration 1000.0 nM
[39] = target: STE20/SPS1-related proline-alanine-rich protein kinase (Homo sapiens) (UniProt Q9UEW8); settings: Compound concentration 1000.0 nM
[40] = target: TRAF2 and NCK-interacting protein kinase (Homo sapiens) (UniProt Q9UKE5); settings: Compound concentration 1000.0 nM
[41] = target: Wee1-like protein kinase 2 (Homo sapiens) (UniProt P0C1S8); settings: Compound concentration 1000.0 nM
Sequence of Wee1-like protein kinase 2 (Homo sapiens) (P0C1S8 whole entry, looked up): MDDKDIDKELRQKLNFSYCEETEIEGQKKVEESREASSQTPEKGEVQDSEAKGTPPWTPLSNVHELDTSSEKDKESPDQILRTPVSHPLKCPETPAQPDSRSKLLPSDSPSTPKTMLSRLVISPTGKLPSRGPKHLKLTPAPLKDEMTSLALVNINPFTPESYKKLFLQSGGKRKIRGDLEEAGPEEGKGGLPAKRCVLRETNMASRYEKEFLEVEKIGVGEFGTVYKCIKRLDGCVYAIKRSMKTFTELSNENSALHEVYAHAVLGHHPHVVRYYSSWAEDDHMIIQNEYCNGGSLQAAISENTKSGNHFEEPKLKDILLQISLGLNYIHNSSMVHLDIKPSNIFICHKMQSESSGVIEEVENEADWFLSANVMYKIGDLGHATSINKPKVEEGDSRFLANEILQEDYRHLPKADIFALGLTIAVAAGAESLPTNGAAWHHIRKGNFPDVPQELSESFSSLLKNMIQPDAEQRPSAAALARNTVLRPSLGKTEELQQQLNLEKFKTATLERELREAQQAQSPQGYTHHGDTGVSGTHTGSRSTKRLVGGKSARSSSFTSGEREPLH

[42] = target: Serine/threonine-protein kinase 32C (Homo sapiens) (UniProt Q86UX6); settings: Compound concentration 1000.0 nM
[43] = target: Mu-type opioid receptor (Homo sapiens) (UniProt P35372); settings: Compound concentration 10.0 uM
[44] = target: Histamine H4 receptor (Homo sapiens) (UniProt Q9H3N8); settings: Compound concentration 10.0 uM
[45] = target: Muscarinic acetylcholine receptor M1 (Homo sapiens) (UniProt P11229); settings: Compound concentration 10.0 uM

N#Cc1ccc(Nc2ccc3[nH]c(=O)[nH]c3c2)c(Cl)c1
inactive: residual activity [1] 95% | residual activity [2] 100% | residual activity [3] 100% | residual activity [4] 100% | residual activity [5] 100% | residual activity [6] 83% | residual activity [7] 100% | residual activity [8] 100% | residual activity [9] 97% | residual activity [10] 100% | residual activity [11] 100% | residual activity [12] 100% | residual activity [13] 94% | residual activity [14] 96% | residual activity [15] 82% | residual activity [16] 100% | residual activity [17] 100% | residual activity [18] 100% | residual activity [19] 88% | residual activity [20] 100% | residual activity [21] 78% | residual activity [22] 88% | residual activity [23] 100% | residual activity [24] 100% | residual activity [25] 100% | residual activity [26] 100% | residual activity [27] 96% | residual activity [28] 55% | residual activity [29] 100% | residual activity [30] 100% | residual activity [31] 85% | residual activity [32] 100% | residual activity [33] 96% | residual activity [34] 87% | residual activity [35] 75% | residual activity [36] 75% | residual activity [37] 100% | residual activity [38] 100% | residual activity [39] 100% | residual activity [40] 99% | residual activity [41] 100% | residual activity [42] 82% | inhibition [43] 0.37% | inhibition [44] 4.43% | inhibition [45] -9.92%

O=C1CCc2cc(Nc3cc(OC4CCOCC4)c([N+](=O)[O-])cc3Cl)ccc2N1
inactive: residual activity [1] 85% | residual activity [2] 87% | residual activity [3] 100% | residual activity [4] 100% | residual activity [5] 98% | residual activity [6] 76% | residual activity [7] 100% | residual activity [8] 93% | residual activity [9] 98% | residual activity [10] 100% | residual activity [11] 99% | residual activity [12] 99% | residual activity [13] 100% | residual activity [14] 96% | residual activity [15] 95% | residual activity [16] 98% | residual activity [17] 100% | residual activity [18] 100% | residual activity [19] 100% | residual activity [20] 99% | residual activity [21] 71% | residual activity [22] 72% | residual activity [23] 100% | residual activity [24] 93% | residual activity [25] 91% | residual activity [26] 100% | residual activity [27] 94% | residual activity [29] 81% | residual activity [30] 100% | residual activity [31] 88% | residual activity [32] 94% | residual activity [33] 100% | residual activity [34] 86% | residual activity [35] 75% | residual activity [36] 90% | residual activity [37] 80% | residual activity [38] 100% | residual activity [39] 100% | residual activity [40] 100% | residual activity [41] 96% | residual activity [42] 83% | inhibition [43] 1.31% | inhibition [44] 11.6% | inhibition [45] -4.43%
active: residual activity [28] 40%
